This note sets out measurements from patent US11173151B2, “Substituted triazole derivatives and uses thereof” (BAYER AKTIENGESELLSCHAFT, priority 2017, dated 2021).

Test [1] concerns the target T1, human V1a receptor (Homo sapiens, UniProt P37288).
T1 construct: expressed in transfected cells; host or cells: CHO K1 (ATCC), also stably transfected with a modified aequorin
As to the kind of experiment: Cellular in vitro assay for determining vasopressin receptor activity, V1a receptor cell line (CHO, aequorin luminescence). Type of test: cell-based. The conditions noted are these: for IC50: CHO cell line transfected with human V1a receptor, [Arg]-vasopressin at EC50 concentration, read-out: IC50 hV1a; for ratio IC50 hV2/hV1a: selectivity ratio IC50 hV2 / IC50 hV1a. A digest of the protocol:
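Cells were plated the day before in medium containing 5 μg/ml coelenterazine and kept at 37° C. Compounds at various concentrations were then added for 10 minutes. Next, [Arg]-vasopressin at EC50 was applied and light output recorded at once, yielding IC50.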

Test [2] has as its target T2, human V2 receptor (Homo sapiens, UniProt P30518).
T2 construct: expressed in transfected cells; host or cells: CHO K1 (ATCC) expressing firefly luciferase under a CRE-responsive promoter
As to the kind of experiment: Cellular in vitro assay for determining vasopressin receptor activity, V2 receptor cell line (CHO, CRE-luciferase). The conditions noted are these: CHO cell line transfected with human V2 receptor, [Arg8]-vasopressin at EC50 concentration, read-out: IC50 hV2. The class given is cell-based.

Where two headings read alike, the source gives them in different places.

T1 sequence (P37288 whole entry): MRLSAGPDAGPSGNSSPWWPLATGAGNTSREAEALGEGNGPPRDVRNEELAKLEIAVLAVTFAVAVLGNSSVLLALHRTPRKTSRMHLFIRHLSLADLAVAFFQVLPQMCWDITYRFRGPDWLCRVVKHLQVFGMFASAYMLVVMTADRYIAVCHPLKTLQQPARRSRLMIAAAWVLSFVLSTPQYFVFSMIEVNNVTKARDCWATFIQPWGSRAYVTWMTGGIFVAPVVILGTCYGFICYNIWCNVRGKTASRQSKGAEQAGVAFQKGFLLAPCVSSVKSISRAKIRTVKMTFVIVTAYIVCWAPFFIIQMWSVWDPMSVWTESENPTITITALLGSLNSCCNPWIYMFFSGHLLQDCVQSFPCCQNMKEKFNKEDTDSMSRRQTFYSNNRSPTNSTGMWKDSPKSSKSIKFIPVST
T2 sequence (P30518 whole entry): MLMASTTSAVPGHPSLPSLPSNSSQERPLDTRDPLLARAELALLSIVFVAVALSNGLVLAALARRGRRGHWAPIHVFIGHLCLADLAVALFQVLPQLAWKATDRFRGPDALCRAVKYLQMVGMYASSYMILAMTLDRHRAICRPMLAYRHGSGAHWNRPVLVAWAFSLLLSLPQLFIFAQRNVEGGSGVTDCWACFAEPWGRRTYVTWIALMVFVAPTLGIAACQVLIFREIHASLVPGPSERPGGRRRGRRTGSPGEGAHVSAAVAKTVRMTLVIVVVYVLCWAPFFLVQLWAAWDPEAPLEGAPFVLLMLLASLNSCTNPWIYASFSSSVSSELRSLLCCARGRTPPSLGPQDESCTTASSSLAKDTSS

For the molecule `O=C(Nc1ncccc1-n1cnc(Cn2nc(-c3ccc(Cl)cc3)n(C[C@H](O)C(F)(F)F)c2=O)n1)[C@H]1C[C@@H]1F` (racemic) [Example 84, N-{3-[3-({3-(4-Chlorophenyl)-5-oxo-4-[(2S)-3,3,3-trifluoro-2-hydroxypropyl]-4,5-dihydro-1H-1,2,4-triazol-1-yl}methyl)-1H-1,2,4-triazol-1-yl]pyridin-2-yl}-2-fluorocyclopropanecarboxamide], in test [1], the IC50 was 9.95 nM and the “ratio IC50 hV2/hV1a” value is 321.6. In test [2] (3 hours), the IC50 was 3200 nM.
The matching figures for `O=C(N[C@H]1C[C@H]1F)c1cccc(Cl)c1-n1cnc(Cn2nc(-c3ccc(Cl)cc3)n(C[C@H](O)C(F)(F)F)c2=O)n1` (racemic) [Example 389, 3-Chloro-2-[3-({3-(4-chlorophenyl)-5-oxo-4-[(2S)-3,3,3-trifluoro-2-hydroxypropyl]-4,5-dihydro-1H-1,2,4-triazol-1-yl}methyl)-1H-1,2,4-triazol-1-yl]-N-[2-fluorocyclopropyl]benzamide]: 2.65 nM, 315.1 and 835 nM.
Taken in the same sequence, the figures for `O=C(N[C@H]1C[C@H]1F)c1cccc(Cl)c1-n1cnc(Cn2nc(-c3ccc(Cl)cc3)n(C[C@@H](O)C(F)(F)F)c2=O)n1` (racemic) [Example 397, 3-Chloro-2-[3-({3-(4-chlorophenyl)-5-oxo-4-[(2R)-3,3,3-trifluoro-2-hydroxypropyl]-4,5-dihydro-1H-1,2,4-triazol-1-yl}methyl)-1H-1,2,4-triazol-1-yl]-N-[2-fluorocyclopropyl]benzamide] were 72 nM, 96.5 and 6950 nM.
In the case of `O=C(N[C@@H]1C[C@@H]1F)c1cccc(C(F)(F)F)c1-n1cnc(Cn2nc(-c3ccc(Cl)cc3)n(C[C@H](O)C(F)(F)F)c2=O)n1` (racemic) [Example 413, 2-[3-({3-(4-Chlorophenyl)-5-oxo-4-[(2S)-3,3,3-trifluoro-2-hydroxypropyl]-4,5-dihydro-1H-1,2,4-triazol-1-yl}methyl)-1H-1,2,4-triazol-1-yl]-N-[2-fluorocyclopropyl]-3-(trifluoromethyl)benzamide], in test [1], the IC50 stood at 34.5 nM and the “ratio IC50 hV2/hV1a” value stood at 59.4. Besides, the IC50 in test [2] came out at 2050 nM.
Regarding `O=C(N[C@H]1C[C@@H]1F)c1cccc(C(F)(F)F)c1-n1cnc(Cn2nc(-c3ccc(Cl)cc3)n(C[C@H](O)C(F)(F)F)c2=O)n1` (racemic) [Example 422, 2-[3-({3-(4-Chlorophenyl)-5-oxo-4-[(2S)-3,3,3-trifluoro-2-hydroxypropyl]-4,5-dihydro-1H-1,2,4-triazol-1-yl}methyl)-1H-1,2,4-triazol-1-yl]-N-[2-fluorocyclopropyl]-3-(trifluoromethyl)benzamide], in test [1], the IC50 stood at 30 nM and the “ratio IC50 hV2/hV1a” value came to 93.3. In test [2], the IC50 turned out to be 2800 nM.
The matching figures for `O=C(N[C@H]1C[C@H]1F)c1ncccc1-n1cnc(Cn2nc(-c3ccc(Cl)cc3)n(C[C@H](O)C(F)(F)F)c2=O)n1` (racemic) [Example 435, 3-[3-({3-(4-Chlorophenyl)-5-oxo-4-[(2S)-3,3,3-trifluoro-2-hydroxypropyl]-4,5-dihydro-1H-1,2,4-triazol-1-yl}methyl)-1H-1,2,4-triazol-1-yl]-N-[2-fluorocyclopropyl]pyridine-2-carboxamide]: 24.5 nM, 43.5 and 1060 nM.
The matching figures for `O=C(N[C@H]1C[C@H]1F)c1ncccc1-n1cnc(Cn2nc(-c3ccc(Cl)cc3)n(C[C@H](O)C(F)(F)F)c2=O)n1` (racemic) [Example 456, 3-[3-({3-(4-Chlorophenyl)-5-oxo-4-[(2S)-3,3,3-trifluoro-2-hydroxypropyl]-4,5-dihydro-1H-1,2,4-triazol-1-yl}methyl)-1H-1,2,4-triazol-1-yl]-N-[2-fluorocyclopropyl]pyridine-2-carboxamide]: 12 nM, 65.4 and 785 nM.
